The source of these data is patent US20230183237A1, “COMPETITIVE AND NONCOMPETITIVE INHIBITORS OF THE MUSCARINIC ACETYLCHOLINE RECEPTOR M5” (Vanderbilt University, priority 2020, published 2023).

For the assay, the target named is T1, hM5 (Homo sapiens, UniProt P08912).
T1 construct: expressed in transfected cells
T1 sequence (P08912 1-532): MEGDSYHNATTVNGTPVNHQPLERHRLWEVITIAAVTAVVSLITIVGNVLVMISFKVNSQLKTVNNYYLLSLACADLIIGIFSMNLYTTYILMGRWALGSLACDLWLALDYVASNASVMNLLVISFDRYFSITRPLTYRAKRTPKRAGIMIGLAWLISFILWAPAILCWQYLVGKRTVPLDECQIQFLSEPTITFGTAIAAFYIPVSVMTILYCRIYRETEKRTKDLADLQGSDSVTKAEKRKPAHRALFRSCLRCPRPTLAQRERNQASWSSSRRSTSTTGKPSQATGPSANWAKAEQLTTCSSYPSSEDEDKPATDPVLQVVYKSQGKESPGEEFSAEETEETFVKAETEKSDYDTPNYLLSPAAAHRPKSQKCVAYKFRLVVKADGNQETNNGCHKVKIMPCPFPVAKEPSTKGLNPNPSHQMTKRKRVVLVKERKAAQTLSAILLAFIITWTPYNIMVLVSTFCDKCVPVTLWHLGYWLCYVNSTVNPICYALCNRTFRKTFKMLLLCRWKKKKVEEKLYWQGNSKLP
The assay is described as follows: Calcium mobilization concentration-response (IC50 vs EC80 acetylcholine), CHO hM5. The assay is classed as cell-based. The conditions noted are these: CELL LINE hM5; calcium mobilization, EC80 acetylcholine addition; read-out: IC50. The procedure: Initial, single point (10 μM) compound characterization was performed in stable Chinese Hamster Ovary (CHO) cell lines constitutively expressing human M5 receptors. These were plated at 15,000 cells per 20 μL per well in Greiner 384-well black-walled, TC-treated, clear-bottomed plates (Fisher) in Ham's F12 medium supplemented with 10% FBS and 20 mM HEPES. Cells were incubated overnight at 37° C. under 5% CO2. The following day, medium was exchanged with assay buffer (Hank's Balanced Salt Solution supplemented with 20 mM HEPES and 2.5 mM Probenecid, pH 7.4) leaving 20 μL of assay buffer in each well. […] The cells were then incubated 50 minutes at 37° C. under 5% CO2. The assay buffer plus dye was then exchanged with fresh assay buffer leaving a volume of 20 μL in each well. Test compounds were diluted into assay buffer to a 2X (20 μM) concentration in 0.2% dimethylsulfoxide (DMSO) in columns 3-22 with matching DMSO concentration in columns 1, 2, 23, and […]; compounds were added to the assay for a final concentration of 10 μM and a final DMSO concentration of 0.1%.
Either an FDSS (Hamamatsu) or Panoptic (WaveFront Biosciences) kinetic imaging plate reader was used for assay execution and measurement of calcium flux. After establishing baseline fluorescence, test compounds (20 μL) were added to the cells using the reader's integrated pipettor and allowed to equilibrate for 140 seconds before addition of the […] concentration of acetylcholine (10 μL) along with vehicle in selected DMSO-only wells in the outer two columns . […] The raw fluorescence data from each well was normalized to the corresponding initial fluorescence reading (static ratio). The maximum fluorescence value following each addition was determined and the minimum value within that same timeframe was subtracted for each well then normalized to the average of the ECffiax maximum-minimum response, providing a % AChmax value for each addition for each well. The single point values represent mean values determined within the ECsu addition timeframe obtained from at least three independent determinations performed in triplicate or greater (error bars represent +/−SEM) unless otherwise specified.
CHO cells stably expressing hM1, hM2/Gqi5, hM3, hM4/Gqi5, hM5, rM1/Gqi5, rM3, rM4/Gqi5, or rM5 were plated in the manner described above. […] FDSS protocols were carried out as described above; the static ratio was calculated and the minimum response subtracted from the maximum response within the timeframe of each addition. This max-min response was then normalized to the maximum acetylcholine response. Calculation of IC50 was performed using the percent maximum acetylcholine response for the EC80 addition through the Vortex and Studies modules of the Dotmatics data management software. Results are stored in the Dotrnatics database and an audit trail of any changes to their analysis is generated. Data shown represent mean values obtained from at least three independent determinations performed in triplicate or greater (error bars represent±SEM) unless otherwise specified.

pIC50: −log10 of the molar value.

As a reminder, the pIC50 is the IC50 on a negative log10 scale, so that one unit is a factor of ten. Consider `Cc1nc2[nH]ccc2nc1C1CCN(S(=O)(=O)c2ccc3c(c2)CCO3)CC1` [Compound 15, 2-(1-((2,3-dihydrobenzofuran-5-yl)sulfonyl)piperidin-4-yl)-3-methyl-5H-pyrrolo[2,3-b]pyrazine], for which the pIC50 was < 5.00.

On to `Cc1nc2[nH]ccc2nc1C1CCN(S(=O)(=O)c2ccc3ncsc3c2)CC1` [Compound 16, 6-((4-(3-methyl-5H-pyrrolo[2,3-b]pyrazin-2-yl)piperidin-1-yl)sulfonyl)benzo[d]thiazole], for which the pIC50 was < 5.00.

As to `Cc1cc2nccn2nc1C1CCN(S(=O)(=O)c2ccc3c(c2)CCO3)CC1` [Compound 17, 6-(1-((2,3-dihydrobenzofuran-5-yl)sulfonyl)piperidin-4-yl)-7-methylimidazo[1,2-b]pyridazine], the negative logarithm of the IC50 (pIC50) was 6.08.

With `Cc1cn2cc(C3CCN(S(=O)(=O)c4ccc5c(c4)CCO5)CC3)ncc2n1` [Compound 18, 6-(1-((2,3-dihydrobenzofuran-5-yl)sulfonyl)piperidin-4-yl)-2-methylimidazo[1,2-a]pyrazine], the pIC50 was < 5.00.

Turning to `O=S(=O)(c1ccc2ncsc2c1)N1CCC(c2cc3[nH]ncc3cn2)CC1` [Compound 19, 6-((4-(1H-pyrazolo[4,3-c]pyridin-6-yl)piperidin-1-yl)sulfonyl)benzo[d]thiazole], the pIC50 is < 5.00.

Take `O=S(=O)(c1ccc2ncccc2c1)N1CCC(c2cc3[nH]ncc3cn2)CC1` [Compound 20, 6-((4-(1H-pyrazolo[4,3-c]pyridin-6-yl)piperidin-1-yl)sulfonyl)quinoline]: the negative-log IC50 (pIC50) is < 5.00.

`O=S(=O)(c1ccc2c(c1)CCO2)N1CCC(c2cc3cc[nH]c3nn2)CC1` [Compound 21, 3-(1-((2,3-dihydrobenzofuran-5-yl)sulfonyl)piperidin-4-yl)-7H-pyrrolo[2,3-c]pyridazine]: the pIC50 is 5.66.

For the molecule `O=S(=O)(c1ccc2ncsc2c1)N1CCC(c2cc3cc[nH]c3nn2)CC1` [Compound 22, 6-((4-(7H-pyrrolo[2,3-c]pyridazin-3-yl)piperidin-1-yl)sulfonyl)benzo[d]thiazole], the pIC50 is 5.59.

`O=S(=O)(c1ccc2ncccc2c1)N1CCC(c2cc3cc[nH]c3nn2)CC1` [Compound 23, 6-((4-(7H-pyrrolo[2,3-c]pyridazin-3-yl)piperidin-1-yl)sulfonyl)quinoline]: the pIC50 was 5.59.

For `O=S(=O)(c1ccc2c(c1)CCO2)N1CCC(c2cc3cc[nH]c3cn2)CC1` [Compound 24, 5-(1-((2,3-dihydrobenzofuran-5-yl)sulfonyl)piperidin-4-yl)-1H-pyrrolo[2,3-c]pyridine], the pIC50 is < 5.00.

For the molecule `O=S(=O)(c1ccc2ncsc2c1)N1CCC(c2cc3cc[nH]c3cn2)CC1` [Compound 25, 6-((4-(1H-pyrrolo[2,3-c]pyridin-5-yl)piperidin-1-yl)sulfonyl)benzo[d]thiazole], the pIC50 was < 5.00.

For `O=S(=O)(c1ccc2ncccc2c1)N1CCC(c2cc3cc[nH]c3cn2)CC1` [Compound 26, 6-((4-(1H-pyrrolo[2,3-c]pyridin-5-yl)piperidin-1-yl)sulfonyl)quinoline], the pIC50 was < 5.00.

On to `O=S(=O)(c1ccc2c(c1)CCO2)N1CCC(c2cn3ccnc3cn2)CC1` [Compound 27, 6-(1-((2,3-dihydrobenzofuran-5-yl)sulfonyl)piperidin-4-yl)imidazo[1,2-a]pyrazine], for which the pIC50 was < 5.00.

With `O=S(=O)(c1ccc2c(c1)CCO2)N1CCC(c2ccc3occc3n2)CC1` [Compound 28, 5-(1-((2,3-dihydrobenzofuran-5-yl)sulfonyl)piperidin-4-yl)furo[3,2-b]pyridine], the pIC50 is < 5.00.

With `O=S(=O)(c1ccc2c(c1)CCO2)N1CCC(c2cc3[nH]ccc3cn2)CC1` [Compound 29, 6-(1-((2,3-dihydrobenzofuran-5-yl)sulfonyl)piperidin-4-yl)-1H-pyrrolo[3,2-c]pyridine], the pIC50 was 5.70.

Regarding `O=S(=O)(c1ccc2ncsc2c1)N1CCC(c2cc3[nH]ccc3cn2)CC1` [Compound 30, 6-((4-(1H-pyrrolo[3,2-c]pyridin-6-yl)piperidin-1-yl)sulfonyl)benzo[d]thiazole], the pIC50 was < 5.00.

`O=S(=O)(c1ccc2ncccc2c1)N1CCC(c2cc3[nH]ccc3cn2)CC1` [Compound 31, 6-((4-(1H-pyrrolo[3,2-c]pyridin-6-yl)piperidin-1-yl)sulfonyl)quinoline]: the pIC50 was < 5.00.

With `O=S(=O)(c1ccc2c(c1)CCO2)N1CCC(c2ncc3cc[nH]c3n2)CC1` [Compound 33, 2-(1-((2,3-dihydrobenzofuran-5-yl)sulfonyl)piperidin-4-yl)-7H-pyrrolo[2,3-d]pyrimidine], the pIC50 is < 5.00.

With `Cc1cc2nccn2nc1C1=CCN(S(=O)(=O)c2ccc3c(c2)CCO3)CC1` [Compound 34, 6-(1-((2,3-dihydrobenzofuran-5-yl)sulfonyl)-1,2,3,6-tetrahydropyridin-4-yl)-7-methylimidazo[1,2-b]pyridazine], the pIC50 is < 5.00.

Regarding `Cc1cc2ncnn2cc1C1=CCN(S(=O)(=O)c2ccc3c(c2)CCO3)CC1` [Compound 35, 6-(1-((2,3-dihydrobenzofuran-5-yl)sulfonyl)-1,2,3,6-tetrahydropyridin-4-yl)-7-methyl-[1,2,4]triazolo[1,5-a]pyridine], the pIC50 was 6.29.

As to `Cc1cc2nccn2nc1N1CCN(S(=O)(=O)c2ccc3c(c2)CCO3)CC1` [Compound 36, 6-(4-((2,3-Dihydrobenzofuran-5-yl)sulfonyl)piperazin-1-yl)-7-methylimidazo[1,2-b]pyridazine], the pIC50 is 5.40.

On to `Cc1cc2nccn2nc1C1CCN(S(=O)(=O)c2ccc(Cl)s2)CC1` [Compound 37, 6-(1-((5-chlorothiophen-2-yl)sulfonyl)piperidin-4-yl)-7-methylimidazo[1,2-b]pyridazine], for which the pIC50 is < 5.00.

As for `Cc1cc2nccn2nc1C1CCN(S(=O)(=O)c2ccc3ncsc3c2)CC1` [Compound 38, 6-((4-(7-methylimidazo[1,2-b]pyridazin-6-yl)piperidin-1-yl)sulfonyl)benzo[d]thiazole], the pIC50 was 5.38.

With `Cc1cc2nccn2nc1C1CCN(S(=O)(=O)c2ccc3ncccc3c2)CC1` [Compound 39, 6-((4-(7-methylimidazo[1,2-b]pyridazin-6-yl)piperidin-1-yl)sulfonyl)quinoline], the pIC50 is < 5.00.

Turning to `Cc1cc2nccn2nc1C1CCN(S(=O)(=O)c2ccc3c(c2)OCO3)CC1` [Compound 40, 6-(1-(benzo[d][1,3]dioxol-5-ylsulfonyl)piperidin-4-yl)-7-methylimidazo[1,2-b]pyridazine], the pIC50 is < 5.00.

In the case of `COc1ccc(S(=O)(=O)N2CCC(c3nn4ccnc4cc3C)CC2)c(C)c1` [Compound 41, 6-(1-((4-methoxy-2-methylphenyl)sulfonyl)piperidin-4-yl)-7-methylimidazo[1,2-b]pyridazine], the pIC50 is < 5.00.

Consider `COc1ccc(S(=O)(=O)N2CCC(c3nn4ccnc4cc3C)CC2)cn1` [Compound 42, 6-(1-((6-methoxypyridin-3-yl)sulfonyl)piperidin-4-yl)-7-methylimidazo[1,2-b]pyridazine], for which the pIC50 was < 5.00.

Turning to `Cc1cc2nccn2nc1C1CCN(S(=O)(=O)c2ccc3c(c2)CCCO3)CC1` [Compound 43, 6-(1-(chroman-6-ylsulfonyl)piperidin-4-yl)-7-methylimidazo[1,2-b]pyridazine], the pIC50 was 5.44.

On to `O=S(=O)(c1ccc2c(c1)CCO2)N1CCC(c2nnc(NCc3ccccc3)cc2C(F)(F)F)CC1` [Compound 44], for which the pIC50 was 5.25.
